The source of these data is patent US20240415819A1, “MACROCYCLIC COMPOUNDS AS PROTEASOME SUBUNIT BETA TYPE-5 INHIBITORS” (Lead Discovery Center GmbH, priority 2021, published 2024).

Assay [1] has as its target T1, β5 subunit of the human immunoproteasome (IPS) (Homo sapiens, UniProt P28062).
T1 construct: purchased Boston Biochem E-370
The assay can be described thus: β5 inhibition assay, human immunoproteasome (Suc-LLVY-AMC). It counts as biochemical. The conditions noted are these: IC50 class, Suc-LLVY-AMC substrate. In outline: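 β5 activity is read as liberated AMC fluorescence (355/460 nm) after 4 h dark reaction at RT with 22.6 μM Suc-LLVY-AMC, stopped by 1 μM bortezomib. Beforehand, 1 nM human IPS and compound sat 10 min at RT in HEPES pH 7.5 buffer containing NaCl, 0.02% SDS and DTT.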

Assay [2] deals with A549 (human lung carcinoma cell line). Put plainly: Glo assay of A549 cells (Table 3; ProteasomeGlo plating scheme). To be noted: Homo sapiens; A549 cells; read-out: PGLo A549. It counts as cell-based. A digest of the protocol: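 Compound treatment lasts 105 minutes at 37° C. under 5% CO2. Suc-LLVY-Glo substrate premixed with detection reagent (60 min at room temperature) is then added directly to the cells, and luminescence after 10-15 min in the dark gives the IC50 in nM.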

Structures are written as SMILES. Bounds are passed on as bounds.

On to `Cc1ccc2cc1CNC(=O)[C@H](CCc1ccccc1)NC(=O)[C@@H](NC(=O)[C@@H](C)c1ccccc1)CC(=O)N1CCCC(CCO2)C1` (stereo partly drawn) [Compound 81, (2S)-N-((9S,12S)-5^4-methyl-8,11,14-trioxo-9-phenethyl-4-oxa-7,10-diaza-1(3,1)-piperidina-5(1,3)-benzenacyclotetradecaphane-12-yl)-2-phenylpropanamide], for which the IC50 in assay [1] and in assay [2] was below 100 nM in each case.
With `Cc1ccc2cc1CNC(=O)[C@H](CCc1ccccc1)NC(=O)[C@@H](NC(=O)C(C)(C)CO)CC(=O)N1CCCC(CCO2)C1` (stereo partly drawn) [Compound 284, 3-hydroxy-2,2-dimethyl-N-((9S,12S)-5^4-methyl-8,11,14-trioxo-9-phenethyl-4-oxa-7,10-diaza-1(3,1)-piperidina-5(1,3)-benzenacyclotetradecaphane-12-yl)propanamide], the IC50 was below 100 nM in assay [1] and 100 to 500 nM in assay [2].
Turning to `COCCOCCOCCOCCOCCC(=O)N[C@H]1CC(=O)N2CCCC(CCOc3ccc(C)c(c3)CNC(=O)[C@H](CCc3ccccc3)NC1=O)C2` (stereo partly drawn) [Compound 219, N-((9S,12S)-5^4-methyl-8,11,14-trioxo-9-phenethyl-4-oxa-7,10-diaza-1(3,1)-piperidina-5(1,3)-benzenacyclotetradecaphane-12-yl)-2,5,8,11,14-pentaoxaheptadecan-17-amide], the IC50 in assay [1] and in assay [2] was below 100 nM in each case.
As for `CC(=O)N[C@H]1CC(=O)N2CCOC(CCOc3ccc(C)c(c3)CNC(=O)[C@H](CCc3ccccc3)NC1=O)C2` (stereo partly drawn) [Compound 258, N-((9S,12S)-5^4-methyl-8,11,14-trioxo-9-phenethyl-4-oxa-7,10-diaza-1(2,4)-morpholina-5(1,3)-benzenacyclotetradecaphane-12-yl)acetamide], the IC50 in assay [1] was below 100 nM; in assay [2], 500 to 1000 nM.
With `Cc1ccc2cc1CNC(=O)[C@H](CCc1ccccc1)NC(=O)[C@@H](NC(=O)CN1CCCC1)CC(=O)N1CCCC(CCO2)C1` (stereo partly drawn) [Compound 89, N-((9S,12S)-5^4-methyl-8,11,14-trioxo-9-phenethyl-4-oxa-7,10-diaza-1(3,1)-piperidina-5(1,3)-benzenacyclotetradecaphane-12-yl)-2-(pyrrolidin-1-yl)acetamide], the IC50 in assay [1] and in assay [2] was below 100 nM throughout.
Consider `Cc1ccc2cc1CNC(=O)[C@H](CCc1ccccc1)NC(=O)[C@@H](NC(=O)c1cc3cc(C(F)(F)F)ccc3n1C)CC(=O)N1CCCC(CCO2)C1` (stereo partly drawn) [Compound 87, 1-methyl-N-((9S,12S)-5^4-methyl-8,11,14-trioxo-9-phenethyl-4-oxa-7,10-diaza-1(3,1)-piperidina-5(1,3)-benzenacyclotetradecaphane-12-yl)-5-(trifluoromethyl)-1H-indole-2-carboxamide], for which the IC50 in assay [1] and in assay [2] was below 100 nM throughout.
Take `Cc1ccc2cc1CNC(=O)[C@H](CCc1ccccc1)NC(=O)[C@@H](NS(=O)(=O)Cc1ccccc1)CC(=O)N1CCCC(CCO2)C1` (stereo partly drawn) [Compound 216, N-((9S,12S)-5^4-methyl-8,11,14-trioxo-9-phenethyl-4-oxa-7,10-diaza-1(3,1)-piperidina-5(1,3)-benzenacyclotetradecaphane-12-yl)-1-phenylmethanesulfonamide]: the values for the IC50 in assay [1] and in assay [2] were below 100 nM and 100 to 500 nM, respectively.
Take `Cc1ccc2cc1CNC(=O)[C@H](CCc1ccccc1)NC(=O)[C@@H](NC(=O)c1ccccc1)CC(=O)N1CCCC(CCO2)C1` (stereo partly drawn) [Compound 26, N-((9S,12S)-5^4-methyl-8,11,14-trioxo-9-phenethyl-4-oxa-7,10-diaza-1(3,1)-piperidina-5(1,3)-benzenacyclotetradecaphane-12-yl)benzamide]: the IC50 in assay [1] and in assay [2] was below 100 nM each time.
With `Cc1ccc2cc1CNC(=O)[C@H](CCc1ccccc1)NC(=O)[C@@H](N1C(=O)CCC1=O)CC(=O)N1CCCC(CCO2)C1` (stereo partly drawn) [Compound 43, (9S,12S)-12-(2,5-dioxopyrrolidin-1-yl)-5^4-methyl-9-phenethyl-4-oxa-7,10-diaza-1(3,1)-piperidina-5(1,3)-benzenacyclotetradecaphane-8,11,14-trione], the IC50 was below 100 nM in assay [1] and 100 to 500 nM in assay [2].
For `Cc1ccc2cc1CNC(=O)[C@H](CCc1ccccc1)NC(=O)CCCCC(=O)N1CCCC(CCO2)C1` (stereo partly drawn) [Compound 16, (9S)-5^4-methyl-9-phenethyl-4-oxa-7,10-diaza-1(3,1)-piperidina-5(1,3)-benzenacyclohexadecaphane-8,11,16-trione], the values for the IC50 in assay [1] and in assay [2] were below 100 nM and 500 to 1000 nM, respectively.
Turning to `CC(=O)N[C@H]1CCCC(=O)N2CCOC(CCOc3ccc(C)c(c3)CNC(=O)[C@H](CCc3ccccc3)NC1=O)C2` (stereo partly drawn) [Compound 186, N-((9S,12S)-5^4-methyl-8,11,16-trioxo-9-phenethyl-4-oxa-7,10-diaza-1(2,4)-morpholina-5(1,3)-benzenacyclohexadecaphane-12-yl)acetamide], the figures for the IC50 in assay [1] and in assay [2] were below 100 nM and 100 to 500 nM, respectively.
`Cc1ccc2cc1CNC(=O)[C@H](CCc1ccccc1)NC(=O)CCC(=O)N1CCCC(CCO2)C1` (stereo partly drawn) [Compound 13, (9S)-5^4-methyl-9-phenethyl-4-oxa-7,10-diaza-1(3,1)-piperidina-5(1,3)-benzenacyclotetradecaphane-8,11,14-trione]: the IC50 was below 100 nM in assay [1] and 500 to 1000 nM in assay [2].
Turning to `COc1ccc2cc1CNC(=O)[C@H](CCc1ccccc1)NC(=O)[C@@H](NC(C)=O)CC(=O)N1CCCC(CCO2)C1` (stereo partly drawn) [Compound 211, N-((9S,12S)-5^4-methoxy-8,11,14-trioxo-9-phenethyl-4-oxa-7,10-diaza-1(3,1)-piperidina-5(1,3)-benzenacyclotetradecaphane-12-yl)acetamide], the IC50 in assay [1] was below 100 nM; in assay [2], 500 to 1000 nM.
For `Cc1ccc2cc1CNC(=O)C(CCc1cccnc1)NC(=O)CCC(=O)N1CCCC(CCO2)C1` (centres unmarked) [Compound 51, 5^4-methyl-9-(2-(pyridin-3-yl)ethyl)-4-oxa-7,10-diaza-1(3,1)-piperidina-5(1,3)-benzenacyclotetradecaphane-8,11,14-trione], the IC50 is below 100 nM in assay [1] and 100 to 500 nM in assay [2].
On to `Cc1ccc2cc1CNC(=O)[C@H](CCc1ccccc1)NC(=O)[C@@H](NS(=O)(=O)CCc1ccccc1)CC(=O)N1CCCC(CCO2)C1` (stereo partly drawn) [Compound 217, N-((9S,12S)-5^4-methyl-8,11,14-trioxo-9-phenethyl-4-oxa-7,10-diaza-1(3,1)-piperidina-5(1,3)-benzenacyclotetradecaphane-12-yl)-2-phenylethane-1-sulfonamide], for which the IC50 in assay [1] and in assay [2] was below 100 nM throughout.
As for `Cc1cc2cc(c1C)CNC(=O)[C@H](Cc1c[nH]c3ccccc13)NC(=O)CCC(=O)N1CCCC(CCO2)C1` (stereo partly drawn) [Compound 120, (9S)-9-((1H-indol-3-yl)methyl)-5^4,5^5-dimethyl-4-oxa-7,10-diaza-1(3,1)-piperidina-5(1,3)-benzenacyclotetradecaphane-8,11,14-trione], the IC50 in assay [1] is below 100 nM; in assay [2] it was 1000 to 5000 nM.
On to `Cc1ccc2cc1CNC(=O)[C@H](CCc1ccccc1)NC(=O)[C@@H](NC(=O)CN1CCNCC1)CC(=O)N1CCCC(CCO2)C1` (stereo partly drawn) [Compound 126, N-((9S,12S)-5^4-methyl-8,11,14-trioxo-9-phenethyl-4-oxa-7,10-diaza-1(3,1)-piperidina-5(1,3)-benzenacyclotetradecaphane-12-yl)-2-(piperazin-1-yl)acetamide], for which the IC50 in assay [1] and in assay [2] was below 100 nM in each case.
For `Cc1ccc2cc1CNC(=O)[C@H](Cc1c[nH]c3ccccc13)NC(=O)CCC(=O)N1CCCC(CCO2)C1` (stereo partly drawn) [Compound 77, (9S)-9-((1H-indol-3-yl)methyl)-5^4-methyl-4-oxa-7,10-diaza-1(3,1)-piperidina-5(1,3)-benzenacyclotetradecaphane-8,11,14-trione], the IC50 in assay [1] is below 100 nM; in assay [2], 500 to 1000 nM.
As to `CC(=O)N[C@H]1CCC(=O)N2CCCC(C2)Oc2ccc(C)c(c2)CNC(=O)[C@H](CCc2ccccc2)NC1=O` (stereo partly drawn) [Compound 148, N-((7S,10S)-3^4-methyl-6,9,13-trioxo-7-phenethyl-2-oxa-5,8-diaza-1(3,1)-piperidina-3(1,3)-benzenacyclotridecaphane-10-yl)acetamide], the results for the IC50 in assay [1] and in assay [2] were below 100 nM and above 5000 nM, respectively.
For the compound `CCC(CC)(CO)C(=O)N[C@H]1CC(=O)N2CCCC(CCOc3ccc(C)c(c3)CNC(=O)[C@H](CCc3ccccc3)NC1=O)C2` (stereo partly drawn) [Compound 285, 2-ethyl-2-(hydroxymethyl)-N-((9S,12S)-5^4-methyl-8,11,14-trioxo-9-phenethyl-4-oxa-7,10-diaza-1(3,1)-piperidina-5(1,3)-benzenacyclotetradecaphane-12-yl)butanamide], the IC50 in assay [1] was below 100 nM; in assay [2], 100 to 500 nM.
Consider `Cc1ccc2cc1CNC(=O)[C@@H](CCc1ccccc1)NC(=O)[C@H](NC(=O)OCc1ccccc1)CC(=O)N1CCC[C@H](CCO2)C1` [Compound 290, benzyl ((13R,9R,12R)-5^4-methyl-8,11,14-trioxo-9-phenethyl-4-oxa-7,10-diaza-1(3,1)-piperidina-5(1,3)-benzenacyclotetradecaphane-12-yl)carbamate], for which the IC50 in assay [1] was 500 to 1000 nM; in assay [2] it was above 5000 nM.
Regarding `CC(=O)N[C@H]1CCCC(=O)N2CC3CC(Oc4ccc(C)c(c4)CNC(=O)[C@H](CCc4ccccc4)NC1=O)C3C2` (stereo partly drawn) [Compound 191, N-((11R,15S,7S,10S)-3^4-methyl-6,9,14-trioxo-7-phenethyl-2-oxa-13,5,8-triaza-1(7,3)-bicyclo[3.2.0]heptana-3(1,3)-benzenacyclotetradecaphane-10-yl)acetamide], the figures for the IC50 in assay [1] and in assay [2] were below 100 nM and 1000 to 5000 nM, respectively.
